This is an account of results in PMC3472523 (Journal of the American Chemical Society, 2012).

For data set [1], the system named is Bcl-2. To be noted: cited from earlier work.
The target of data set [2] is T1, Mcl-1 (Mus musculus, UniProt P97287). The settings on record: cited from earlier work.
Data set [3] addresses T2, Bcl-xL (Homo sapiens, UniProt Q07817). To be noted: cited from earlier work.
Data set [4] is described as follows: Stability in mouse serum. Type of data set: in vitro ADME. To be noted: for half-life: mouse.
Data set [5] concerns Mcl-1-overexpressing U937 cells. The settings on record: for Activity in cell viability assay: U937 cells.
Data set [6] addresses T2, Bcl-xL. The data set is described as follows: Direct FP binding assay of fluorescein-conjugated peptides.
Data set [7] concerns the target T1, Mcl-1. The data set is described as above. The settings on record: read-out: Kd toward Mcl-1, N-terminal fluorescein-conjugated peptides.
The target of data set [8] is T1, Mcl-1. The experiment in a line: Competitive fluorescence polarization. Type of data set: binding. The settings on record: competitive FP assay. On the technique in general: Fluorescence polarisation rises when a labelled molecule tumbles more slowly, as on binding a larger partner.
Data set [9] is described as follows: Far-UV CD measurement of percent helicity. Type of data set: physicochemical. The settings on record: for Percent helicity: 50 μM in ACN/H2O (1:1), calculated from [θ]222.

Usually half-life stands for the time in which the quantity being followed falls by half. Lower therefore signals rapid decline. As usually defined, the Kd is the equilibrium constant for the complex coming apart. For orientation: EC50 means the midpoint of the concentration-response curve. A high value points to lower potency in that assay.

Residues, ends and D or L forms follow the SMILES beside them.

T1 sequence (P97287 whole entry): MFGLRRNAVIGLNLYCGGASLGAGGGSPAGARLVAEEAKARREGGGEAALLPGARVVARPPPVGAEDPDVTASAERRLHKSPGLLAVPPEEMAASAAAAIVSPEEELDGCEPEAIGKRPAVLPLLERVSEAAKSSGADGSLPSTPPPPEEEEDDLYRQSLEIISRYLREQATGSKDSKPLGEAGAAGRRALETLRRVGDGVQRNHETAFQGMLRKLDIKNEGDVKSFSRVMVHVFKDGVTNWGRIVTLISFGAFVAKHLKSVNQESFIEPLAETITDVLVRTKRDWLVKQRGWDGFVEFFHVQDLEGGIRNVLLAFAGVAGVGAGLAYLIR
T2 sequence (Q07817 whole entry, species assumed): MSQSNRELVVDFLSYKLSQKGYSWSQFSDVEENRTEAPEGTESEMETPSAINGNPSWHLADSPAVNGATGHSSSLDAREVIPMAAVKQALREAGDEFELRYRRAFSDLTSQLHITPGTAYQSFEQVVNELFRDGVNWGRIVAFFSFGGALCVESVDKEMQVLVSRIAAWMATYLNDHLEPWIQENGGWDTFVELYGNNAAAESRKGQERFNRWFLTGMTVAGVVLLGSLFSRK

For the compound `CN(C)CC[C@H](CSc1ccccc1)Nc1ccc(S(=O)(=O)NC(=O)c2ccc(N3CCN(Cc4ccccc4-c4ccc(Cl)cc4)CC3)cc2)cc1[N+](=O)[O-]` [ABT-737], the “Binding affinity to Bcl-2” value in data set [1] is recorded as “subnanomolar affinity”. Besides, the “Binding to Mcl-1” value in [2] is recorded as “poorly”. For the same compound, the “Binding affinity to Bcl-xL” value in data set [3] was “subnanomolar affinity”.
`CC[C@H](C)[C@H](NC(=O)[C@H](CCCNC(=N)N)NC(=O)[C@H](CCCNC(=N)N)NC(=O)[C@H](CC(C)C)NC(=O)[C@H](CCC(N)=O)NC(=O)[C@H](C)NC(=O)[C@H](C)NC(C)=O)C(=O)NCC(=O)N[C@@H](CC(=O)O)C(=O)N[C@@H](CCCCN)C(=O)N[C@H](C(=O)N[C@@H](CC(N)=O)C(=O)N[C@@H](CC(C)C)C(=O)N[C@@H](CCCNC(=N)N)C(=O)N[C@@H](CCC(N)=O)C(=O)N[C@@H](CCCCN)C(=O)N[C@@H](CC(C)C)C(=O)N[C@@H](CC(C)C)C(=O)N[C@@H](CC(N)=O)C(N)=O)C(C)C` [Noxa, reference compound] displayed a half-life in [4] of 0.175 ± 0.0383 h. The compound also displayed a Cell viability in [5] (ATP assay, U937 cells in RPMI1640 with 5% FBS, 20 μM peptide, 48 hours) of 97.6±0.9%. Moreover, the “Activity in cell viability assay” value in data set [5] (20 μM peptide, 48 hours) is “no activity”. In addition, the dissociation constant (Kd) in data set [6] was more than 1 µM; in data set [7], 0.0067 ± 0.001 µM.
For the compound `CC[C@H](C)[C@@H]1NC(=O)[C@H](CCCNC(=N)N)NC(=O)[C@H](CCCNC(=N)N)NC(=O)[C@H](CC(C)C)NC(=O)[C@@H](NC(=O)[C@H](C)NC(=O)[C@H](C)NC(C)=O)CSCc2ccc(cc2)-c2ccc(cc2)CSC[C@@H](C(=O)N[C@H](C(=O)N[C@@H](CC(N)=O)C(=O)N[C@@H](CC(C)C)C(=O)N[C@@H](CCCNC(=N)N)C(=O)N[C@@H](CCC(N)=O)C(=O)N[C@@H](CCCCN)C(=O)N[C@@H](CC(C)C)C(=O)N[C@@H](CC(C)C)C(=O)N[C@@H](CC(N)=O)C(N)=O)C(C)C)NC(=O)[C@H](CC(=O)O)NC(=O)CNC1=O` [compound 1], the “Increase in inhibitory activity compared to parent Noxa peptide” value in data set [8] is reported as 65 fold. Besides, the “Activity in cell viability assay” value in data set [5] (20 μM peptide, 48 hours) is “no activity”.
For the compound `CC[C@H](C)[C@@H]1NC(=O)[C@H](CCCNC(=N)N)NC(=O)[C@H](CCCNC(=N)N)NC(=O)[C@H](CC(C)C)NC(=O)[C@H](NC(=O)[C@H](C)NC(=O)[C@H](C)NC(C)=O)CSCc2ccc(cc2)-c2ccc(cc2)CSC[C@@H](C(=O)N[C@H](C(=O)N[C@@H](CC(N)=O)C(=O)N[C@@H](CC(C)C)C(=O)N[C@@H](CCCNC(=N)N)C(=O)N[C@@H](CCC(N)=O)C(=O)N[C@@H](CCCCN)C(=O)N[C@@H](CC(C)C)C(=O)N[C@@H](CC(C)C)C(=O)N[C@@H](CC(N)=O)C(N)=O)C(C)C)NC(=O)[C@H](CC(=O)O)NC(=O)CNC1=O` [compound 2], the “Increase in inhibitory activity compared to parent Noxa peptide” value in data set [8] is given as 12 fold. Further, the “Activity in cell viability assay” value in data set [5] (20 μM peptide, 48 hours) is on record as “no activity”.
Regarding `CC[C@H](C)[C@@H]1NC(=O)[C@H](C)NC(=O)[C@H](CCCNC(=N)N)NC(=O)[C@H](CC(C)C)NC(=O)[C@H](NC(=O)[C@H](C)NC(=O)[C@H](C)NC(C)=O)CSCc2ccc(cc2)-c2ccc(cc2)CSC[C@@H](C(=O)N[C@H](C(=O)N[C@@H](CC(N)=O)C(=O)N[C@@H](CC(C)C)C(=O)N[C@@H](C)C(=O)N[C@@H](CCC(N)=O)C(=O)N[C@@H](C)C(=O)N[C@@H](CC(C)C)C(=O)N[C@@H](CC(C)C)C(=O)N[C@@H](CC(N)=O)C(N)=O)C(C)C)NC(=O)[C@H](CC(=O)O)NC(=O)CNC1=O` [compound 5] (HELM PEPTIDE1{[ac].A.A.[dC].L.R.A.I.G.D.C.V.N.L.A.Q.A.L.L.N.[am]}|CHEM1{[c1cc(-c2ccc(C[*:2])cc2)ccc1C[*:1]]}$PEPTIDE1,CHEM1,4:R3-1:R1|PEPTIDE1,CHEM1,11:R3-1:R2$$$V2.0), in [4], the “Increase in stability in mouse serum relative to linear Noxa peptide” value came to 180 fold and the half-life is 31.6 ± 2.2 h. Moreover, in data set [9], the “Increase in helicity, 5 compared to 2” value was “more than twofold” and the Percent helicity is reported as 66%.
With `CC[C@H](C)[C@@H]1NC(=O)[C@H](C)NC(=O)[C@H](CCCNC(=N)N)NC(=O)[C@H](CC(C)C)NC(=O)[C@H](NC(=O)[C@H](C)N(C)C(=O)[C@H](C)N(C)C(=O)OC)CSCc2ccc(cc2)-c2ccc(cc2)CSC[C@@H](C(=O)N[C@H](C(=O)N[C@@H](CC(N)=O)C(=O)N[C@@H](CC(C)C)C(=O)N[C@@H](C)C(=O)N[C@@H](CCC(N)=O)C(=O)N[C@@H](C)C(=O)N[C@@H](CC(C)C)C(=O)N[C@@H](CC(C)C)C(=O)N[C@@H](CC(N)=O)C(N)=O)C(C)C)NC(=O)[C@H](CC(=O)O)NC(=O)CNC1=O` [compound 8] (HELM PEPTIDE1{[COC(=O)[*:2]].[meA].[meA].[dC].L.R.A.I.G.D.C.V.N.L.A.Q.A.L.L.N.[am]}|CHEM1{[c1cc(-c2ccc(C[*:2])cc2)ccc1C[*:1]]}$PEPTIDE1,CHEM1,4:R3-1:R1|PEPTIDE1,CHEM1,11:R3-1:R2$$$V2.0), in data set [4], the “Increase in stability in mouse serum relative to linear Noxa peptide” value was 121 fold and the half-life was 21.2 ± 2.6 h. This compound also had an EC50 in data set [5] (48 h) of 13.4 µM. The Percent helicity in data set [9] is given as 52%.
